Data taken from patent US20100317767A1, “FULLERENE FILM AND FULLERENE POLYMER BOTH PRODUCED FROM FULLERENE DERIVATIVE AND PROCESSES FOR PRODUCING THESE” (FRONTIER CARBON CORPORATION, priority 2006, published 2010).
Where two headings read alike, the source gives them in different places.

What was measured:
[1] = TG-DTA examination in air atmosphere; format: physicochemical; conditions: for weight loss (TG-DTA): 300° C. (in air), heating rate 10° C./min
Method: Compounds 1 to 6 synthesized in (1) to (6) above were examined by TG-DTA (thermogravimetric-differential thermal analysis) in order to investigate the behavior thereof in thermal decomposition. The examination was made with apparatus for both differential thermal analysis and thermogravimetry TG/DTA6200, manufactured by SII Nano Technology Inc., in an air atmosphere (flow rate, 200 mL/min) under the conditions of a heating rate of 10° C./min. In [60]fullerene, a large weight loss accompanied by heat generation began to be observed at around 500° C. This weight loss was due to oxidation/combustion. […] This large weight loss is thought to be attributable to the pyrolysis of the fullerene derivative.

[2] = TG examination in nitrogen atmosphere; format: physicochemical; conditions: for weight loss (TG-DTA): heating rate 10° C./min; for temperature of weight loss attributable to pyrolysis, compared with air: in nitrogen, result in words
Method: The examination was made with apparatus for both differential thermal analysis and thermogravimetry TG/DTA6200, manufactured by SII Nano Technology Inc., in a nitrogen atmosphere (flow rate, 200 mL/min) under the conditions of a heating rate of 10° C./min.

[3] = Washing of coating films with toluene before and after heat treatment; format: physicochemical; conditions: coating film
Method: A 5% by mass PGMEA solution of each of Compounds 1, 2, and 5 and a 5% by mass cyclohexanone solution of each of Compounds 3 and 4 were prepared. Each solution was applied to a glass substrate (50×50 mm) with a spin coater and dried at 100° C. Thereafter, the coating films were examined with an optical microscope. As a result, these coating films were ascertained to be even. These coating films were washed with toluene. As a result, the films were removed. It was thus ascertained that the coating films from which the solvent had been removed were soluble in toluene.
The coating films of Compounds 1 to 5 each formed on a glass substrate in (8) were placed in an electric furnace heated at 300° C. and heat-treated for 10 minutes in an air atmosphere.
The fullerene films obtained by the heat treatment of the coating films of Compounds 1 to 3 were examined by X-ray diffractometry (XRD) with RINT 2500, manufactured by Rigaku Corp. […] Measuring conditions are as follows.
The films which had undergone the heat treatment(s) were washed with toluene. […] It can be seen that although the fullerene derivatives applied in film form had been soluble in toluene solvent, the derivatives became insoluble, through the heat treatment(s), in the solvent in which the fullerene is soluble.

[4] = Solubility of fullerene derivatives in toluene (HPLC determination); format: physicochemical
Method: The solubility of a fullerene derivative can be determined, for example, by diluting a solution of the fullerene derivative with a good solvent, e.g., toluene, and examining the dilution with an analyzer such as, e.g., a high-performance liquid chromatograph (HPLC). More specifically, the procedure is as follows. A dilution of the fullerene derivative solution is analyzed with an HPLC having an ultraviolet/visible detector to determine that peak intensity for the fullerene derivative which is obtained from the absorbance of an ultraviolet light having a specific wavelength (e.g., 290 nm). The concentration of the fullerene derivative in the dilution of the fullerene derivative solution is determined from a calibration curve obtained beforehand from fullerene derivative standard solutions having known concentrations (prepared using the solvent used for diluting the fullerene derivative solution). This concentration value is multiplied by the dilution ratio to thereby determine the fullerene derivative concentration in the original fullerene derivative solution.

[5] = cited from earlier work
[6] = after heat treatment (300° C./in air), 10 minutes

N-(4-hydroxyphenyl)-2-n-dodecylpyrrolidine-C60 [Compound 3]
weight loss attributable to fullerene derivative pyrolysis ([1]; TG in air, result in words): No weight loss attributable to fullerene derivative pyrolysis was observed | weight loss (TG-DTA) ([2]; 600° C. (in nitrogen)): 12% | Solubility in toluene [3, 6]: soluble | Solubility in toluene ([3]; after heat treatment (500° C./in air), 10 minutes): insoluble | Solubility in toluene ([3]; before heat treatment): soluble | Solubility in toluene [4]: 6%

c12c3c4c5c1c1c6c7c2c2c8c3c3c9c4c4c%10c5c5c1c1c6c6c%11c7c2c2c7c8c3c3c8c9c4c4c9c%10c5c5c1c1c6c6c%11c2c2c7c3c3c8c4c4c9c5c1c1c6c2c3c41 [[60]fullerene]
solubility of [60]fullerene in the solvent ([5]; 1,2,3-trimethylbenzene): 4700 µg/mL | solubility of [60]fullerene in the solvent ([5]; 1,2,4-trichlorobenzene): 10400 µg/mL | solubility of [60]fullerene in the solvent ([5]; 1,2,4-trimethylbenzene): 17900 µg/mL | solubility of [60]fullerene in the solvent ([5]; 1,3,5-trimethylbenzene): 1500 µg/mL | solubility of [60]fullerene in the solvent ([5]; 1-methylnaphthalene): 33200 µg/mL | solubility of [60]fullerene in the solvent ([5]; 1-phenylnaphthalene): 50000 µg/mL | solubility of [60]fullerene in the solvent ([5]; N-methyl-2-pyrrolidone): 890 µg/mL | solubility of [60]fullerene in the solvent ([5]; bromobenzene): 2800 µg/mL | solubility of [60]fullerene in the solvent ([5]; chlorobenzene): 5700 µg/mL | solubility of [60]fullerene in the solvent ([5]; chloroform): 500 µg/mL | solubility of [60]fullerene in the solvent ([5]; cyclohexane): 50 µg/mL | solubility of [60]fullerene in the solvent ([5]; decalin): 4600 µg/mL | solubility of [60]fullerene in the solvent ([5]; dichloromethane): 250 µg/mL | solubility of [60]fullerene in the solvent ([5]; ethylbenzene): 2600 µg/mL | solubility of [60]fullerene in the solvent ([5]; m-dichlorobenzene): 2400 µg/mL | solubility of [60]fullerene in the solvent ([5]; m-xylene): 1400 µg/mL | solubility of [60]fullerene in the solvent ([5]; n-decane): 70 µg/mL | solubility of [60]fullerene in the solvent ([5]; n-dodecane): 90 µg/mL | solubility of [60]fullerene in the solvent ([5]; n-hexane): 40 µg/mL | solubility of [60]fullerene in the solvent ([5]; n-tetradecane): 126 µg/mL | solubility of [60]fullerene in the solvent ([5]; o-dichlorobenzene): 24600 µg/mL | solubility of [60]fullerene in the solvent ([5]; o-xylene): 8700 µg/mL | solubility of [60]fullerene in the solvent ([5]; p-xylene): 5900 µg/mL | solubility of [60]fullerene in the solvent ([5]; quinoline): 7200 µg/mL | solubility of [60]fullerene in the solvent ([5]; tetrahydrofuran): 37 µg/mL | solubility of [60]fullerene in the solvent ([5]; toluene): 2900 µg/mL | solubility of [60]fullerene in the solvent ([5]; xylene): 5200 µg/mL | temperature of oxidation/combustion (large weight loss with heat generation / large exothermic peak) ([1]; in air): around 500 °C

C60 (t-Butoxycarbonylmethylpiperazine)4(O) [Compound 6]
weight loss (TG-DTA) [1]: 38% | temperature of weight loss attributable to pyrolysis of the fullerene derivative ([1]; in air): around 200 °C | weight loss (TG-DTA) ([2]; 300° C. (in nitrogen)): 50% | temperature of weight loss attributable to pyrolysis, compared with air [2]: almost the same temperature as in air | Solubility in toluene [4]: ≥ 10%

C60(tBu-isonipecotate)4(O) [Compound 5]
weight loss (TG-DTA) [1]: 37% | temperature of weight loss attributable to pyrolysis of the fullerene derivative ([1]; in air): around 200 °C | weight loss (TG-DTA) ([2]; 300° C. (in nitrogen)): 44% | temperature of weight loss attributable to pyrolysis, compared with air [2]: almost the same temperature as in air | Solubility in toluene [3, 6]: insoluble | Solubility in toluene ([3]; before heat treatment): soluble | Solubility in toluene [4]: ≥ 10%
